Data: patent US20200354327A1, “COMPOUND HAVING STAT3 INHIBITORY ACTIVITY AND USE THEREOF” (CYTUS H&B CO., LTD., priority 2017, published 2020)
Blank lines part the entries; values can stand above or below the compound they belong to.

Assays:
[1] = system: STAT92E; experiment: Drosophila cell luciferase assay (10XSTAT92E-luciferase reporter); assay type: cell-based; settings: activated by the ligand upd or Hop
Protocol: Drosophila cells (S2-NP, 24×3) used in the experiment were cultured as previously described (Kim B H, et al. Mol Cancer Ther. 7, 2672-2680 (2008)). S2-NP (Drosophila Schneider cell) cells were Drosophila-derived macrophage-like cells and were cultured in Schneider's medium. 24×3 cells were cell lines stably expressed by inserting 10XSTAT92E-luciferase and PolIII-Renilla luciferase-labeled plasmid DNA as reporter constructs into S2-NP cells and were cultured in a medium prepared by adding […] of geneticin to the same medium as that for S2-NP. S2-NP cells in which unpaired (upd) or HOPT^Tum-l as a ligand was expressed and 24×3 cells constructed with reporter constructs were mixed at a constant ratio and cultured for 24 hours in the presence of a compound, the expression level of STAT92E was measured using a luminometer, and the inhibition effect was compared with that of the DMSO-treated group.

[2] = biological target: T1, STAT3 (Homo sapiens, UniProt P40763); experiment: Western blot in Hodgkin lymphoma cell line L540; assay type: cell-based; set-up: endogenous in cells; host or cells: L540, HDLM-2, U87-MG, MDA-MB-231, further human glioblastoma and breast cancer lines; settings: L540 cells
Protocol: (§1) The human cancer cell lines used in the experiment were U87-MG (human malignant glioblastoma) and MDA-MB-231 (human malignant breast cancer) cell lines, and various kinds of human-derived blood and solid cancer cells including these human cancer cell lines were cultured as previously described (Jung J E, et al. FASEB J. 19, 1296-1298 (2005)). The human Hodgkin lymphoma cancer cell lines L540 and HLDM-2 used in the experiment were obtained from the German Collection of Microorganism and Cell Cultures (DSMZ, Germany) and cultured using RPMI 1640 medium containing 20% FBS in a 5% CO2 incubator at a temperature of 37° C.
(§2) Western blot analysis was performed (Jung J E, et al. FASEB J. 19, 1296-1298 (2005)). The cells were washed two times with PBS and suspended in the lysate (50 mM Tris-HCl, pH 7.4, 350 mM NaCl, 1% Triton X-100, 0.5% Nonidet P-40, 10% glycerol, 0.1% SDS, 1 mM EDTA, 1 mM EGTA, 1 mM Na3VO4, 1 mM PMSF, protease and phosphorylation inhibitor) and the cell membrane and nuclear membrane were crushed to lyse the cells. The insoluble protein fraction was removed by centrifugation, and the supernatant was mixed with SDS electrophoresis buffer and electrophoresis (SDS-PAGE) was performed to detect the protein with the desired antibody and to confirm the protein expression level.

[3] = biological target: T1, STAT3; experiment: Western blot in HDLM-2 cells; assay type: cell-based; set-up: endogenous in cells; host or cells: L540, HDLM-2, U87-MG, MDA-MB-231, further human glioblastoma and breast cancer lines
Protocol: as §1, §2

[4] = system: SOCS3; experiment: Western blot of SOCS3 expression in L540 cells; assay type: cell-based, human
Protocol: as §1, §2

[5] = biological target: T2, Src family kinase Lyn (Homo sapiens, UniProt P07948); experiment: Western blot of signaling in L540 cells: Lyn; assay type: cell-based
T2 construct: endogenous in cells; host or cells: L540
Protocol: as §1, §2

[6] = biological target: T3, JAK3 (Homo sapiens, UniProt P52333); experiment: Western blot of upper signaling in L540 cells: JAK3; assay type: cell-based
T3 construct: endogenous in cells; host or cells: L540
T3 sequence (P52333 1-1124): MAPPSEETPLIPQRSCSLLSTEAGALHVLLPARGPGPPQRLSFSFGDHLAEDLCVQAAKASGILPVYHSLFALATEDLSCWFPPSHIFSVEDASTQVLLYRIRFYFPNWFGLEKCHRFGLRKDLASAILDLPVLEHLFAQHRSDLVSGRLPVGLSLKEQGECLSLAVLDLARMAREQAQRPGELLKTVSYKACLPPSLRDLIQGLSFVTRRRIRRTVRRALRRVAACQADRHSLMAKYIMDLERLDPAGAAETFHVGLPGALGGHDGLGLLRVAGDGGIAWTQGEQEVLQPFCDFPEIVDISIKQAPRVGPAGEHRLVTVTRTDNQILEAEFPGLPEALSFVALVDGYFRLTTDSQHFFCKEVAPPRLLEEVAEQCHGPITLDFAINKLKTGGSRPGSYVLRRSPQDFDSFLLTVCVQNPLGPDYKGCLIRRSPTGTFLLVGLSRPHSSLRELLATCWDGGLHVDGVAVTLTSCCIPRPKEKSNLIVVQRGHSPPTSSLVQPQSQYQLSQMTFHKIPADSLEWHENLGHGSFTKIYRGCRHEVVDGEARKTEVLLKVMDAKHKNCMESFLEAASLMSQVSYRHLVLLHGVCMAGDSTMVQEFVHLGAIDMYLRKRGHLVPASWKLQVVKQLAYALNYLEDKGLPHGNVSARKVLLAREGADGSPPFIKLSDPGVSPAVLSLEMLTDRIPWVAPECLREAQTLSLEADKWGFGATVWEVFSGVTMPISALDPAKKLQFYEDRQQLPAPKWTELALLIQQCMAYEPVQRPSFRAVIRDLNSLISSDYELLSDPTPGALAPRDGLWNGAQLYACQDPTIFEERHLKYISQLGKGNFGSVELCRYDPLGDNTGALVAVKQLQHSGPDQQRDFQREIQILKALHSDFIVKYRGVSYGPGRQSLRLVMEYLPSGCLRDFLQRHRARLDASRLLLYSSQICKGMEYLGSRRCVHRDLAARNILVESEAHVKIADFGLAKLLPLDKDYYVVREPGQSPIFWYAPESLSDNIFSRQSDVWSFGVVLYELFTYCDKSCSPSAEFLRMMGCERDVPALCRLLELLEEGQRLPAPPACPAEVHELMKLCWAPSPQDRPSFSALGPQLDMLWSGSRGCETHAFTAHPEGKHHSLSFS
Protocol: as §1, §2

[7] = system: ERK signaling process; experiment: Western blot of signaling in L540 cells: ERK; assay type: cell-based, human
Protocol: as §1, §2

[8] = biological target: T1, STAT3; experiment: Western blot of the 46 Table 1 compounds in Hodgkin lymphoma cell lines L540 and HDLM-2; assay type: cell-based; set-up: endogenous in cells; host or cells: L540, HDLM-2, U87-MG, MDA-MB-231, further human glioblastoma and breast cancer lines; settings: for STAT3 inhibitory efficacy, first screening: L540 and HDLM-2
Protocol: as §1, §2

T1 sequence (P40763 whole entry): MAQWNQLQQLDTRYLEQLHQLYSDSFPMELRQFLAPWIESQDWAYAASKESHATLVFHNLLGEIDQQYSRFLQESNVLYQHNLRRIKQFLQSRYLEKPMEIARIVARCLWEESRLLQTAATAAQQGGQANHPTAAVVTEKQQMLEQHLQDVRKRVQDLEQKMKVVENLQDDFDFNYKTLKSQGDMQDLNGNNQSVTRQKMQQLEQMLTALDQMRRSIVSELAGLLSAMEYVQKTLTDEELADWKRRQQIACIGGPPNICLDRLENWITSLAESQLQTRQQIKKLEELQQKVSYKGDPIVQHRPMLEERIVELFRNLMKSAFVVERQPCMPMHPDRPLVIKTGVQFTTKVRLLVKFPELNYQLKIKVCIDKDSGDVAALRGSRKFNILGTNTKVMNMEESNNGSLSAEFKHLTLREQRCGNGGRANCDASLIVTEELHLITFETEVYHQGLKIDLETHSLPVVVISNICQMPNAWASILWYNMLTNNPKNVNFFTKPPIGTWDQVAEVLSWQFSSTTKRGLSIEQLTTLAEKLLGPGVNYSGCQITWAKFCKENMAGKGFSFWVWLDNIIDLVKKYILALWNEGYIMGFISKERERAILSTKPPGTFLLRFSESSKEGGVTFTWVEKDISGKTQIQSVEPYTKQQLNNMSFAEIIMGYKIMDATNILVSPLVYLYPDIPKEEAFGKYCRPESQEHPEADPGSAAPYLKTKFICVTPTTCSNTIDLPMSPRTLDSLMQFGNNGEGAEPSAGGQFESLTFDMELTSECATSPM
T2 sequence (P07948 whole entry): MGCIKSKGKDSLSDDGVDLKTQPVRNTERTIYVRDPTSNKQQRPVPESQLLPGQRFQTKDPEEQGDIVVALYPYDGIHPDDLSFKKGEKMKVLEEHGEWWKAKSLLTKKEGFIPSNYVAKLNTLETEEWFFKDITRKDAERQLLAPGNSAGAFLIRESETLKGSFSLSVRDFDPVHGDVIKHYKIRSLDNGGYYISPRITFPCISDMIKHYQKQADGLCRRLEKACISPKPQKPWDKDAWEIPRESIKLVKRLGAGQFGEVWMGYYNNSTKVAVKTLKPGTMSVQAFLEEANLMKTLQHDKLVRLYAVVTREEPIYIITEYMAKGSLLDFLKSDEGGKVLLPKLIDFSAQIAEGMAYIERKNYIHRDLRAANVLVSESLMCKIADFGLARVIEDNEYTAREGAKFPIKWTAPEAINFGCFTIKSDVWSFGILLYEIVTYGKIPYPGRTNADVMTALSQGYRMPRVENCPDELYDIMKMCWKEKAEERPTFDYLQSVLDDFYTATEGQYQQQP

- inhibitory action on Src family kinase Lyn [5]: did not exert an inhibitory action
- inhibitory action on JAK3 [6]: weak inhibitory action
Structure (SMILES): CC(C)(C)c1nc(COc2cccc([N+](=O)[O-])c2)no1 [ODZ17690, 5-tert-butyl-3-(3-nitro-phenoxymethyl)-[1,2,4]oxadiazole]
- expression of STAT92E (luciferase assay) [1]: effectively inhibited the expression of STAT92E
- phosphorylation of tyrosine residue 705 of STAT3 [2]: effectively inhibited the phosphorylation of tyrosine residue 705 of STAT3
- selective inhibitory action on STAT3 versus STAT1 or STAT5 [2]: stronger selective inhibitory action on STAT3 than on STAT1 or STAT5
- phosphorylation of tyrosine residue 705 of STAT3 [3]: selectively inhibited phosphorylation of tyrosine residue 705 of STAT3
- expression of SOCS3 [4]: effectively inhibited
- inhibitory action on ERK signaling process [7]: did not exert an inhibitory action

Structure (SMILES): COc1ccccc1C(=O)Nc1ccc(C(=O)N2CCNC2=O)cc1 [compound 41, 2-methoxy-N-{4-[(2-oxo-l-imidazolidinyl)carbonyl]phenyl}benzamide]
- STAT3 inhibitory efficacy, first screening [8]: judged to exert superior STAT3 inhibitory efficacy

Structure (SMILES): Cc1[nH]c2ccc(-c3n[nH]c(=S)n3C)cc2c1C [compound 42, 5-(2,3-dimethyl-lH-indol-5-yl)-4-methyl-2,4-dihydro-3H-l,2,4-triazole-3-thione]
- STAT3 inhibitory efficacy, first screening [8]: judged to exert superior STAT3 inhibitory efficacy

Structure (SMILES): O=C(Nc1cccnc1)c1cccc(NS(=O)(=O)c2ccccc2)c1 [compound 43, 3-[(phenylsulfonyl)amino]-N-3-pyridinylbenzamide]
- STAT3 inhibitory efficacy, first screening [8]: judged to exert superior STAT3 inhibitory efficacy

Structure (SMILES): CS(=O)(=O)Nc1cccc(C(=O)Nc2ccccc2C(=O)NCc2cccnc2)c1 [compound 44, 2-({3-[(methylsulfonyl)amino]benzoyl]amino)-N-(3-pyridinylmethyl)benzamide]
- STAT3 inhibitory efficacy, first screening [8]: judged to exert superior STAT3 inhibitory efficacy

Structure (SMILES): O=C(NCC1CCCO1)C1CC(=O)N(c2ccc(O)cc2)C1 (stereo not shown) [compound 45, 1-(4-hydroxyphenyl)-5-oxo-N-(tetrahydro-2-furanylmethyl)-3-pyrrolidinecarboxamide]
- STAT3 inhibitory efficacy, first screening [8]: judged to exert superior STAT3 inhibitory efficacy

Structure (SMILES): Cc1ccc(S(=O)(=O)Nc2cccc(C(=O)Nc3cccnc3)c2)cc1 [compound 46, 3-{[(4-methylphenyl)sulfonyl]amino}-N-3-pyridinylbenzamide]
- STAT3 inhibitory efficacy, first screening [8]: judged to exert superior STAT3 inhibitory efficacy
- STAT3 inhibitory efficacy, secondary screening ([8]; L540 and HDLM-2, 50 μM): judged to exert superior STAT3 inhibitory efficacy
- phosphorylation of STAT tyrosine 705 ([8]; L540 and HDLM-2, various concentrations): significantly inhibited the phosphorylation of STATdml tyrosine 705 in a concentration-dependent manner
